Reference: patent US10947252B2, “Inhibitors of KEAP1-Nrf2 protein-protein interaction” (Janssen Pharmaceutica NV, priority 2018, dated 2021)

Legend:
[1] = biological target: Kelch domain of human KEAP1 (321-624 aa) (Homo sapiens (Human), UniProt Q14145); experiment: KEAP1 KELCH ThermoFluor binding assay; details: KEAP Kelch […], 1,8-ANS, pH 7.0, average of results obtained, read-out: Tf Kd;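 further: Ligand-induced melting temperature shift of E. coli-expressed KEAP1 Kelch protein, Kd estimated from concentration-response curves of ΔTm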
Chain of Kelch domain of human KEAP1 (321-624 aa) (Q14145 321-624): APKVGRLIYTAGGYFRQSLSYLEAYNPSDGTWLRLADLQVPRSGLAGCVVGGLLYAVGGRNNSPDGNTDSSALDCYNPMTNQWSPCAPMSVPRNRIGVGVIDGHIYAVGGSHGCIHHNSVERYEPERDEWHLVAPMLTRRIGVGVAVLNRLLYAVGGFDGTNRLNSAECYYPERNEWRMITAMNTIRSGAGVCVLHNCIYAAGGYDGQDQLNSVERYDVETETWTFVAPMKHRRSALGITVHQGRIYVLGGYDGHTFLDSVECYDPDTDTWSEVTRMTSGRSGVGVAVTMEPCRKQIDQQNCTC

[2] = tested on: Glo-Response ARE-luc2P HEK293 cell line; experiment: ARE luciferase reporter cell-based assay; details: Homo sapiens, HEK293, 24 h, average of results obtained;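 further: luciferase signal tracks Nrf2 activation of the ARE once compounds disrupt KEAP1-Nrf2 binding, read with One-Glo reagent, DMSO serving as low control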

| SMILES | Kd [1] [nM] | EC50 [2] [nM] |
| --- | --- | --- |
| Cc1ccc(C(CC(=O)O)c2ccn3c(C(F)F)nnc3c2C)cc1CN1CC2(CCOCC2)Oc2ccc(F)cc2S1(=O)=O (centres unmarked) [Example 523, 3-(3-(Difluoromethyl)-8-methyl-[1,2,4]triazolo[4,3-a]pyridin-7-yl)-3-(3-((8-fluoro-1,1-dioxido-2′,3′,5′,6′-tetrahydrospiro[benzo[b][1,4,5]oxathiazepine-4,4′-pyran]-2(3H)-yl)methyl)-4-methylphenyl)propanoic Acid] | < 1 | 23.9 |
| Cc1ccc([C@@H](CC(=O)O)c2ccn3c(C(F)F)nnc3c2C)cc1CN1CC2(CCOCC2)Oc2ccc(F)cc2S1(=O)=O (single isomer, unassigned) [Example 525, (*R)-3-(3-(Difluoromethyl)-8-methyl-[1,2,4]triazolo[4,3-a]pyridin-7-yl)-3-(3-((8-fluoro-1,1-dioxido-2′,3′,5′,6′-tetrahydrospiro[benzo[b][1,4,5]oxathiazepine-4,4′-pyran]-2(3H)-yl)methyl)-4-methylphenyl)propanoic Acid] | < 1 | 38.8 |
| Cc1cc2cc([C@@H](CC(=O)O)c3ccc(C)c(CN4C[C@H]5CCCCN5c5ncccc5S4(=O)=O)c3)n(C)c2nn1 (single isomer, unassigned) [Example 444, (*S)-3-(3,7-Dimethyl-7H-pyrrolo[2,3-c]pyridazin-6-yl)-3-(3-(((*R)-5,5-dioxido-7,7a,8,9,10,11-hexahydro-6H-dipyrido[2,1-d:2′,3′-f][1,2,5]thiadiazepin-6-yl)methyl)-4-methylphenyl)propanoic Acid] | 21.3 | > 20000 |
| Cc1ccc([C@H](c2ccn3c(C(F)F)nnc3c2C)C(C)(C)C(=O)O)cc1CN1CC2(CCOCC2)Oc2ncccc2S1(=O)=O (single isomer, unassigned) [Example 54, (*R)-3-(3-(Difluoromethyl)-8-methyl-[1,2,4]triazolo[4,3-a]pyridin-7-yl)-3-(3-((1′,1′-dioxido-2,3,5,6-tetrahydrospiro[pyran-4,4′-pyrido[2,3-b][1,4,5]oxathiazepin]-2′(3′H)-yl)methyl)-4-methylphenyl)-2,2-dimethylpropanoic Acid] | 1790 | 956 |
| Cc1ccc(C(CC(=O)O)c2ccn3c(C(F)(F)F)nnc3c2)cc1CN1C[C@@H]2CCCN2c2ncccc2S1(=O)=O (stereo partly drawn) [Example 253, 3-(3-(((S)-5,5-Dioxido-7a,8,9,10-tetrahydropyrido[2,3-f]pyrrolo[2,1-d][1,2,5]thiadiazepin-6(7H)-yl)methyl)-4-methylphenyl)-3-(3-(trifluoromethyl)-[1,2,4]triazolo[4,3-a]pyridin-7-yl)propanoic Acid] | < 1 | 1170 |
| Cc1ccc(C(CC(=O)O)c2ccn3c(C(F)F)nnc3c2C)cc1CN1CC2(COC2)Oc2ccccc2S1(=O)=O (centres unmarked) [Example 466, 3-(3-(Difluoromethyl)-8-methyl-[1,2,4]triazolo[4,3-a]pyridin-7-yl)-3-(3-((1,1-dioxidospiro[benzo[b][1,4,5]oxathiazepine-4,3′-oxetan]-2(3H)-yl)methyl)-4-methylphenyl)propanoic Acid] | < 1 | 124 |
| Cc1ccc([C@H](CC(=O)O)c2ccn3c(C(F)(F)F)nnc3c2C)cc1CN1C[C@H]2CCCN2c2ncccc2S1(=O)=O (single isomer, unassigned) [Example 389, (*S)-3-(3-(((R)-5,5-Dioxido-7a,8,9,10-tetrahydropyrido[2,3-f]pyrrolo[2,1-d][1,2,5]thiadiazepin-6(7H)-yl)methyl)-4-methylphenyl)-3-(8-methyl-3-(trifluoromethyl)-[1,2,4]triazolo[4,3-a]pyridin-7-yl)propanoic Acid] | < 1 | 12.1 |
